Where no end group is shown, it is not given here.
Tests used:
Assay type in all cases: cell-based, human
[1] = tested on: iPS-derived definitive endoderm cells; experiment: Induction of pancreatic endoderm from iPS-derived definitive endoderm, immunofluorescence for PDX1, NEUROD1, NGN3; conditions: definitive endoderm cells treated with FGF10, RA and CYC in the presence of ILV; without ILV low levels of PDX1 expression
Protocol: For immunostaining, iPS cells were fixed for 20 minutes at room temperature (RT) in 4% paraformaldehyde (PFA) in PBS, washed in PBS, and blocked for 30 minutes with 5% FBS in PBST (PBS with 0.1% Tween-20 (Sigma). Cells were stained with primary antibodies overnight at 4° C., rinsed by PBS, and incubated with secondary antibodies 1 hour at RT (Martinez-Fernandez et al., Circ. Res., 105:648-656 (2009)). Cells at different stages of differentiation were fixed and stained with primary and secondary antibodies. Primary and secondary antibodies used for characterization of iPS and derived cells were: SSEA-1, SSEA-4, TRA-1-60, TRA-1-81 (Millipore #SCR001), OCT4 (Cell Signaling Technology #2750), SOX2 (Cell Signaling Technology #2748), KLF4 (Abcam #ab26648), NANOG (Abcam #ab21624), mouse anti-S0X17 (R&D Systems #MAB1924), rabbit anti-HNF3 beta/FOXA2 (Millipore #07-633), rabbit anti-PDX1 (Santa Cruz Biotechnology #sc-25403), rabbit anti-NGN3 (Millipore #AB5684), rabbit anti-NEUROD1 (Abcam #16508), mouse anti-insulin (Sigma #I2018), rabbit anti-C-peptide (Cell Signaling Technology #4593), rabbit anti-Insulin (Cell Signaling Technology #4590), mouse anti-proinsulin C-peptide (Millipore #CBL94), mouse anti-glucagon (Abcam #ab10988), MafA (Santa Cruz Biotechnology #sc-66958), and rabbit anti-somatostatin (Dako #A0566). […]

[2] = tested on: iPS-derived islet-like clusters; experiment: C-peptide release assay, glucose stimulated secretion, ELISA; conditions: for C-peptide secretion in response to glucose challenge when the agent is left out of the cocktail: HCF#1-derived islet-like clusters differentiated without ILV or without GLP-1, glucose 10 mM and 27.7 mM
Protocol: (§1) (R&D systems) and 100 ng/mL activin A (Peprotech) in advanced RPMI (A-RPMI, Invitrogen) with Pen/Strep for 1 day, followed by treatment with 100 ng/mL activin A in A-RPMI supplemented with 0.2% FBS (Invitrogen) for two days. At step two, cells were cultured in A-RPMI medium containing 50 ng/mL FGF10 (R&D systems), 0.25 μM KAAD-cyclopamine (CYC), and 2% FBS for 2 days. Cells were then treated with 50 ng/mL FGF10, 0.25 μM CYC, and 2 μM all-trans Retinoic Acid (RA) (Sigma) in DMEM (Invitrogen) supplemented with Pen/Strep, 1× B27 supplement (Invitrogen) for 4 days at step three. Cells were then cultured in the presence of 50 ng/mL FGF10, 300 nM ILV (Axxora), and 55 nM GLP-1 (Sigma) in DMEM with 1 × B27 for 4 days at step four. In step five, differentiation medium included 10 μM DAPT (Sigma) and 55 nM GLP-1 in DMEM with 1× B27 and culture lasted 6 days. Finally, in step six, cells were cultured in the presence of 50 ng/mL hepatocyte growth factor (HGF) (R&D systems), 50 ng/mL Insulin-like growth factor 1 (IGF-1) (R&D systems) and 55 nM GLP-1 in CMRL-1066 medium (Invitrogen) with 1× B27 for 6 days. All experiments were repeated more than three times.
A C-peptide release assay was performed by incubating derived islet-like clusters in Krebs-Ringer solution with bicarbonate and HEPES (KRBH; 129 mM NaCl, 4.8 mM KCl, 2.5 mM CaCl2, 1.2 mM KH2PO4, 1.2 mM MgSO4, 5 mM NaHCO3, 10 mM HEPES, and 0.1% (wt/vol) BSA). […] C-peptide or proinsulin levels were determined using an ultrasensitive C-peptide/proinsulin ELISA kit (Alpco Diagnostics).
C-peptide secretion from iPS-derived islet-like clusters in response to glucose challenge, the critical physiological function of pancreatic beta cells, was analyzed. To determine whether islet-like cells are capable of C-peptide secretion in response to glucose induction, cells were exposed to increasing concentrations of glucose and secreted C-peptide was measured by ELISA. […]

[3] = tested on: iPS-derived pancreatic endoderm cells; experiment: RT-PCR of pancreatic hormone and islet marker genes during guided differentiation; conditions: following inclusion of GLP-1 with HGF, IGF and DAPT
Protocol: as §1, with “Finally, in step six, cells were cultured in the presence of 50 ng/mL hepatocyte growth factor (HGF) (R&D systems), 50 ng/mL Insulin-like growth factor 1 (IGF-1) (R&D systems) and 55 nM GLP-1 in CMRL-1066 medium (Invitrogen) with 1× B27 for 6 days. All experiments were repeated more than three times.” left out
To determine the expression of endocrine-specific transcription factors and pancreas-specific genes throughout differentiation, the gene expression pattern was analyzed at each stage of differentiation. RT-PCR detected high levels of FOXA2 expression after 3 days of differentiation, confirming induction of definitive endoderm cells (FIG. 8A). […]

Molecule | expression of pancreatic endoderm markers [1] | C-peptide secretion in response to glucose challenge when the agent is left out of the cocktail [2] | C-peptide secretion ([2]; pancreatic endoderm treated with HGF, IGF, Exendin-4 and DAPT, data not shown) | gene expression of pancreatic hormones and islet markers by RT-PCR [3]
CC(C)[C@H]1C(=O)N[C@H](CO)Cc2c[nH]c3cccc(c23)N1C [ILV, indolactam V] | resulted in cells expressing PDX1, NEUROD1, and NGN3 | failed to secrete C-peptide |  | 
Exendin-4 |  |  | failed produce detectable C-peptide secretion | 
glucagon like peptide-1 (HAEGTFTSDVSSYLEGQAAKEFIAWLVKGR; ends and bridges not checked; UniProt P01275 98-127, looked up) [GLP-1, GLP-1 polypeptide (Sigma), used at 55 nM in the differentiation medium] |  | failed to secrete C-peptide |  | positive gene expression of pancreatic hormones
